Legend:
RON = RON (Homo sapiens, UniProt Q04912); experiment: Inhibitory activity against RON, TR-FRET kinase assay; type: biochemical; settings: RON enzyme
Procedure: In order to measure the inhibitory activity of each of the compounds of Examples against RON, the IC50 of each of the compounds was measured using a Time-Resolved Fluorescence Energy Transfer Chemistry (TR-FRET).
(§1) Specifically, the compound was prepared to a concentration of 1 mM with 100% DMSO and was diluted 10 times in a stepwise manner through 3-fold dilution. 2 ul of the compound diluted in a stepwise manner was added to a 96-well-plate containing 48 ul of a 1× kinase reaction buffer (50 mM HEPES (pH 7.4), 0.01% Tween-20, 5 mM DTT, 0.5 mM Na3VO4, 2 mM EGTA, 10 mM MgCl2).
The RON protein was diluted to a concentration of 49.3 nM with an RON storage buffer (50 mM Tris-HCl (pH 7.5), 150 mM NaCl, 0.5 mM EDTA, 0.02% Triton X-100), and then diluted again to a concentration of 0.4 nM with a 1× kinase reaction buffer. As a substrate cocktail, a RON-specific substrate mixture (40 uM ULight-labeled Poly GT, 100 nM ATP) at a concentration 2 times the final reaction concentration.
Thereafter, a 384-well-plate was prepared, and 2.5 ul of each of the diluted compounds of Examples was added to a corresponding well of experimental group wells, and 2.5 ul of a 4% DMSO solution was dispensed into high control wells and low control wells.
(§2) Thereafter, 2.5 μL of 0.4 nM RON was dispensed into the high control wells and the experimental group wells, and 2.5 μL of a 1× kinase reaction buffer was added to the low control wells, and the RON and the reaction buffer were centrifuged at room temperature for 40 seconds at 1000 RPM, and then incubated at room temperature for 20 to 30 minutes. Then, 5 μL of a substrate cocktail (2×) was dispensed into all wells, centrifuged at room temperature for 40 seconds at 1000 RPM, and then incubated at room temperature for 60 minutes. Thereafter, 5 μL of 30 mM EDTA was added to all wells to terminate the reaction, and then incubated again at room temperature for 5 minutes. Thereafter, 5 μL of a 4× phosphotyrosine antibody (Perkin Elmer) containing europium was added to all wells, and then incubated at room temperature for 60 minutes. After the incubation, the 384-well-plate was read with a Vison plate reader. At this time, the excitation wavelength was 340 nm, and the emission wavelength was 620 nm and 665 nm. The IC50 value of the compound of each Example was derived using the GraphPd Prism7 program.

cMET = cMET (Homo sapiens, UniProt P08581); experiment: Inhibitory activity against MET (cMET), TR-FRET kinase assay; type: biochemical; settings: cMET enzyme
Chain of cMET (P08581 25-1390): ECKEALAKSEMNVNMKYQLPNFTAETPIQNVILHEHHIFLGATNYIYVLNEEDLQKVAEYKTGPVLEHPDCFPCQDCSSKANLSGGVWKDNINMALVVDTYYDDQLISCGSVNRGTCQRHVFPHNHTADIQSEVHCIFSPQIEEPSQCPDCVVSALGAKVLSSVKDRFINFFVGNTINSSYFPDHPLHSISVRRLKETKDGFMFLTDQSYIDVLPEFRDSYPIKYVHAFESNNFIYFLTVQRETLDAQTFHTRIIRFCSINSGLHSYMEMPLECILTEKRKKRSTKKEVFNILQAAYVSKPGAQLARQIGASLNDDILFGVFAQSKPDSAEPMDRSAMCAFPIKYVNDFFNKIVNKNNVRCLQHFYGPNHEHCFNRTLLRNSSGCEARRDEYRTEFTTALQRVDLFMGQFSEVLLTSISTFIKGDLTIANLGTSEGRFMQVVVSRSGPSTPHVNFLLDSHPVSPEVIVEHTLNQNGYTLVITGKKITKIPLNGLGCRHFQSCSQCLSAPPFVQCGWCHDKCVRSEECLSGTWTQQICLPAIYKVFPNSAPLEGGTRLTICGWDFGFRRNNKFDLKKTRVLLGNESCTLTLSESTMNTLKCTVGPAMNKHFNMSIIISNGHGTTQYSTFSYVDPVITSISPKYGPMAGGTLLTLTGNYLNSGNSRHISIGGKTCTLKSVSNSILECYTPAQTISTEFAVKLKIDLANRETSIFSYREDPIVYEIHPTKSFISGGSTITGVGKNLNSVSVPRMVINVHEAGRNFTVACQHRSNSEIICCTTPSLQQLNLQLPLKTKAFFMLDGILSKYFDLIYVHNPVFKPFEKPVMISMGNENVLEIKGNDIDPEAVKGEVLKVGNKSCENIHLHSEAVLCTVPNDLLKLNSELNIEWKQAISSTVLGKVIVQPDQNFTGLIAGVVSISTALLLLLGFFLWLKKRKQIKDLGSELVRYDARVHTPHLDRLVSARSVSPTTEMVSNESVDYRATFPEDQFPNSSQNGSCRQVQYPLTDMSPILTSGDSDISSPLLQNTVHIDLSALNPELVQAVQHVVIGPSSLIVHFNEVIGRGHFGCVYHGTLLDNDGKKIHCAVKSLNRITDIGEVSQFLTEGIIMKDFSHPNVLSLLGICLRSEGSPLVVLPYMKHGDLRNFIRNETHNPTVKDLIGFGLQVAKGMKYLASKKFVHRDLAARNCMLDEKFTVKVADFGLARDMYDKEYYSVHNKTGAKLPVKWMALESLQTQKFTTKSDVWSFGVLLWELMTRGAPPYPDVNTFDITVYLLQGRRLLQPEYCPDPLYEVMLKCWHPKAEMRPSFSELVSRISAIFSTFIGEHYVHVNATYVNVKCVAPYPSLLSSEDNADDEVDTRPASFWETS
Procedure: In addition, in order to measure the enzyme activity inhibition for cMET, the evaluation was performed in the same manner as the enzyme activity inhibition measurement experiment for the RON.
as §1, with “7.4), 0.05% BSA, 0.005%” for “7.4), 0.01%”, “Tween-20, 1” for “Tween-20, 5”, “mM MnCl2, 20” for “mM Na3VO4, 2 mM EGTA, 10”
The cMET protein was diluted to a concentration of 263 nM with a cMET storage buffer (50 mM Tris-HCl (pH 7.5), 150 mM NaCl, 0.05% Brij35, 1 mM DTT, 10% Glycerol), and then diluted again to a concentration of 2 nM with a 1× kinase reaction buffer. As a substrate cocktail, a MET-specific substrate mixture (5 uM TK peptide, […]) at a concentration 2 times the final reaction concentration.
Thereafter, a 384-well-plate was prepared, and 2.5 μl of each of the diluted compounds of Examples was added to a corresponding well of experimental group wells, and 2.5 μl of a 4% DMSO solution was dispensed into high control wells and low control wells.
as §2, with “of 2” for “of 0.4”, “nM cMET” for “nM RON”, “of 90” for “of 30”

Chain of RON (Q04912 25-1400, species assumed): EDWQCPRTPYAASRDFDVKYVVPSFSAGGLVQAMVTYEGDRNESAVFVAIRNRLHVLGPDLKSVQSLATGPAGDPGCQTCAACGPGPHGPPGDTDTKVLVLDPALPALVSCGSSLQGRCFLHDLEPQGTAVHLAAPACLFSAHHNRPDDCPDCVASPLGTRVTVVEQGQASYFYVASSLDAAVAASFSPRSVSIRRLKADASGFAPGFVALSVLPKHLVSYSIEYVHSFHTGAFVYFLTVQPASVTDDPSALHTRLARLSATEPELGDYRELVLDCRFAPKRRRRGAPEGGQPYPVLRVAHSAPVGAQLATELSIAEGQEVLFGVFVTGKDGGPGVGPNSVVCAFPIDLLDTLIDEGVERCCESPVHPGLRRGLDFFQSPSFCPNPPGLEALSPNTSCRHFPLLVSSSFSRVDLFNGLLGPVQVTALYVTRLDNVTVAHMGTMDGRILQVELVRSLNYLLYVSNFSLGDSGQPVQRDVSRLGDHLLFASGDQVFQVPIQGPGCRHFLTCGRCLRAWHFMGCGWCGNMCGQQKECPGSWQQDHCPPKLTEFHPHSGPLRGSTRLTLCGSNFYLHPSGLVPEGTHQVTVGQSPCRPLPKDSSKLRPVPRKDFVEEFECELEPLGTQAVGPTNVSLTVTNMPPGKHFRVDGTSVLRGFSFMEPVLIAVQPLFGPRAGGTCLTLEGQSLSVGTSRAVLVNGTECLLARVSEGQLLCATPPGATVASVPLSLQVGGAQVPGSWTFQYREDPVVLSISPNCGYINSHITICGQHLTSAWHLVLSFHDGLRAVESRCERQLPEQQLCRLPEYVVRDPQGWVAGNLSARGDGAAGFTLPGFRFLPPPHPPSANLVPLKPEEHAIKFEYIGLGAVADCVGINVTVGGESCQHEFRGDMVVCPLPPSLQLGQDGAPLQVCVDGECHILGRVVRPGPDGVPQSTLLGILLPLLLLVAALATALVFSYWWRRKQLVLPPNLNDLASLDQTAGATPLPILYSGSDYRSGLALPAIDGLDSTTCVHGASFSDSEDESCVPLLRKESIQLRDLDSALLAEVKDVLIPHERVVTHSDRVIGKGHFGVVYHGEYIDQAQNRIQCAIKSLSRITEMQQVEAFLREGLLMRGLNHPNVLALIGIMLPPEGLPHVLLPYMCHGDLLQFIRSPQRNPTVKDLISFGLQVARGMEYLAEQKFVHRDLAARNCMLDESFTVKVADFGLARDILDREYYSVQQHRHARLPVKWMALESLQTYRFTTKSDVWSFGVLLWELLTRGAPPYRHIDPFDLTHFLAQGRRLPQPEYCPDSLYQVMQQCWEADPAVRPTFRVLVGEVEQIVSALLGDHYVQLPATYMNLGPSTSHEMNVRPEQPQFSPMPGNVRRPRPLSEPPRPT

Structure (SMILES)	IC50 (RON) [nM]	IC50 (cMET) [nM]
CC(C)n1c(=O)[nH]c2nccc(Oc3ccc(NC(=O)c4cnn(-c5ccccc5)c4-c4ccccc4)cc3F)c21 [Example 19, N-(3-fluoro-4-((1-isopropyl-2-oxo-2,3-dihydro-1H-imidazo[4,5-b]pyridine-7-yl)oxy)phenyl)-1,5-diphenyl-1H-pyrazole-4-carboxamide]	50 to 500	50 to 500
CCn1c(=O)[nH]c2nccc(Oc3ccc(NC(=O)c4cnn(-c5ccccc5)c4C(F)(F)F)cc3F)c21 [Example 4, N-(4-((1-ethyl-2-oxo-2,3-dihydro-1H-imidazo[4,5-b]pyridine-7-yl)oxy)-3-fluorophenyl)-1-phenyl-5-(trifluoromethyl)-1H-pyrazole-4-carboxamide]	< 50	> 5000
CC(C)n1c(=O)[nH]c2nccc(Oc3ccc(NC(=O)c4cnn(-c5c(F)cccc5F)c4C(F)(F)F)cc3F)c21 [Example 36, 1-(2,6-difluorophenyl)-N-(3-fluoro-4-((1-isopropyl-2-oxo-2,3-dihydro-1H-imidazo[4,5-b]pyridine-7-yl)oxy)phenyl)-5-(trifluoromethyl)-1H-pyrazole-4-carboxamide]	< 50	500 to 5000
CC(C)n1c(=O)[nH]c2nccc(Oc3ccc(NC(=O)c4cnn(C5CCCN(C)C5)c4C(F)(F)F)cc3F)c21 (stereo not drawn) [Example 33, N-(3-fluoro-4-((1-isopropyl-2-oxo-2,3-dihydro-1H-imidazo[4,5-b]pyridine-7-yl)oxy)phenyl)-1-(1-methylpiperidine-3-yl)-5-(trifluoromethyl)-1H-pyrazole-4-carboxamide]	50 to 500	500 to 5000
CC(C)n1c(=O)[nH]c2nccc(Oc3ccc(NC(=O)c4ccccc4C(F)(F)F)cc3F)c21 [Example 24, N-(3-fluoro-4-((1-isopropyl-2-oxo-2,3-dihydro-1H-imidazo[4,5-b]pyridine-7-yl)oxy)phenyl)-2-(trifluoromethyl)benzamide]	500 to 5000	500 to 5000
CC(C)n1c(=O)[nH]c2nccc(Oc3ccc(NC(=O)c4cnn(-c5ccccc5Cl)c4C(F)(F)F)cc3F)c21 [Example 35, 1-(2chlorophenyl)-N-(3-fluoro-4-((1-isopropyl-2-oxo-2,3-dihydro-1H-imidazo[4,5-b]pyridine-7-yl)oxy)phenyl)-5-(trifluoromethyl)-1H-pyrazole-4-carboxamide]	< 50	500 to 5000
CC(C)n1c(=O)[nH]c2nccc(Oc3ccc(NC(=O)c4cn(-c5ccccc5)nn4)cc3F)c21 [Example 41, N-(3-fluoro-4-((1-isopropyl-2-oxo-2,3-dihydro-1H-imidazo[4,5-b]pyridine-7-yl)oxy)phenyl)-1-phenyl-1H-1,2,3-triazole-4-carboxamide]	500 to 5000	> 5000
CC(C)n1c(=O)[nH]c2nccc(Oc3ccc(NC(=O)c4cnc(-c5ccccc5)s4)cc3F)c21 [Example 15, N-(3-fluoro-4-((1-isopropyl-2-oxo-2,3-dihydro-1H-imidazo[4,5-b]pyridine-7-yl)oxy)phenyl)-2-phenylthiazole-5-carboxamide]	50 to 500	> 5000
CCc1c(C(=O)Nc2ccc(Oc3ccnc4[nH]c(=O)[nH]c34)c(F)c2)cnn1-c1ccccc1 [Example 9, 5-ethyl-N-(3-fluoro-4-((2-oxo-2,3-dihydro-1H-imidazo[4,5-b]pyridine-7-yl)oxy)phenyl)-1-phenyl-1H-pyrazole-4-carboxamide]	50 to 500	> 5000
CC(C)n1c(=O)[nH]c2nccc(Oc3ccc(NC(=O)c4ccn(-c5ccccc5)n4)cc3F)c21 [Example 40, N-(3-fluoro-4-((1-isopropyl-2-oxo-2,3-dihydro-1H-imidazo[4,5-b]pyridine-7-yl)oxy)phenyl)-1-phenyl-1H-pyrazole-3-carboxamide]	500 to 5000	500 to 5000
CC(C)n1c(=O)[nH]c2nccc(Oc3ccc(NC(=O)c4cnn(C5CCCOC5)c4C(F)(F)F)cc3F)c21 (stereo not drawn) [Example 20, N-(3-fluoro-4-((1-isopropyl-2-oxo-2,3-dihydro-1H-imidazo[4,5-b]pyridine-7-yl)oxy)phenyl)-1-(tetrahydro-2H-pyran-3-yl)-5-(trifluoromethyl)-1H-pyrazole-4-carboxamide]	< 50	500 to 5000

Now from value to compound:

IC50 (RON) [nM]	IC50 (cMET) [nM]	Structure (SMILES)
< 50	> 5000	O=C(Nc1ccc(Oc2ccnc3[nH]c(=O)n(C4CCOCC4)c23)c(F)c1)c1ncn(-c2ccccc2)c1C(F)(F)F [Example 11, N-(3-fluoro-4-((2-oxo-1-(tetrahydro-2H-pyran-4-yl)-2,3-dihydro-1H-imidazo[4,5-b]pyridine-7-yl)oxy)phenyl)-1-phenyl-5-(trifluoromethyl)-1H-imidazole-4-carboxamide]
< 50	500 to 5000	O=C(Nc1ccc(Oc2ccnc3[nH]c(=O)n(C4CCCC4)c23)c(F)c1)c1ncn(-c2ccccc2)c1C(F)(F)F [Example 21, N-(4-((1-cyclopentyl-2-oxo-2,3-dihydro-1H-imidazo[4,5-b]pyridine-7-yl)oxy)-3-fluorophenyl)-1-phenyl-5-(trifluoromethyl)-1H-imidazole-4-carboxamide]
< 50	> 5000	O=C(Nc1ccc(Oc2ccnc3[nH]c(=O)[nH]c23)c(F)c1)c1ncn(-c2ccccc2)c1C(F)(F)F [Example 1, N-(3-fluoro-4-((2-oxo-2,3-dihydro-1H-imidazo[4,5-b]pyridine-7-yl)oxy)phenyl)-1-phenyl-5-(trifluoromethyl)-1H-imidazole-4-carboxamide]
< 50	> 5000	Cn1c(=O)[nH]c2nccc(Oc3ccc(NC(=O)c4cnn(-c5ccccc5)c4C(F)(F)F)cc3F)c21 [Example 6, N-(3-fluoro-4-((1-methyl-2-oxo-2,3-dihydro-1H-imidazo[4,5-b]pyridine-7-yl)oxy)phenyl)-1-phenyl-5-(trifluoromethyl)-1H-pyrazole-4-carboxamide]
< 50	> 5000	CC(C)n1c(=O)[nH]c2nccc(Oc3ccc(NC(=O)c4ncn(-c5ccccc5)c4C(F)(F)F)cc3F)c21 [Example 8, N-(3-fluoro-4-((1-isopropyl-2-oxo-2,3-dihydro-1H-imidazo[4,5-b]pyridine-7-yl)oxy)phenyl)-1-phenyl-5-(trifluoromethyl)-1H-imidazole-4-carboxamide]
< 50	500 to 5000	O=C(Nc1ccc(Oc2ccnc3[nH]c(=O)n(C4CCCC4)c23)c(F)c1)c1cnn(-c2ccccc2)c1C(F)(F)F [Example 22, N-(4-((1-cyclopentyl-2-oxo-2,3-dihydro-1H-imidazo[4,5-b]pyridine-7-yl)oxy)-3-fluorophenyl)-1-phenyl-5-(trifluoromethyl)-1H-pyrazole-4-carboxamide]
50 to 500	500 to 5000	CCc1c(C(=O)Nc2ccc(Oc3ccnc4[nH]c(=O)n(C5CCCC5)c34)c(F)c2)cnn1-c1ccccc1 [Example 23, N-(4-((1-cyclopentyl-2-oxo-2,3-dihydro-1H-imidazo[4,5-b]pyridine-7-yl)oxy)-3-fluorophenyl)-5-ethyl-1-phenyl-1H-pyrazole-4-carboxamide]

From patent US20240300944A1, “NOVEL UREA DERIVATIVE COMPOUND AS RON INHIBITOR” (LG CHEM, LTD., priority 2021, published 2024)
